Reference: patent publication US9713613B2, “Methods and compositions for the treatment of cancer and related hyperproliferative disorders” (priority 2007, dated 2017)
Entries after “also recorded” stand apart in the source; their conditions may differ.

Tested on: ob/ob mice
Test: ob/ob mice, four weeks daily ip treatment
Format: in vivo
Protocol: The study employed 4-5 week old male ob/ob mice of average weight of about 23 g/mouse. Fatostatin A (30 mg/kg/day) was delivered intraperitoneally daily, and body weight and food intake were measured. […] At the end of first week of treatment ob control mice injected with DMSO gained on average of 4.82 g/mouse (from 23.58±0.62 to 28.40±1.45), whereas the fatostatin treated group gained about 3.37 g/mouse (23.08±1.53 to 26.45±1.2 g/mouse), (p=0.03). After 28 days of treatment the fatostatin A treated group weighed about 12% less than the controls weeks (32.1±1.4 compared to 36.2±2.2 g/mouse […]) (P=0.02). The accumulative food intake was similar in both groups FIG. 8C).
Four- to 5-week old homozygous male obese (ob/ob) mice (C57BL/6J, The Jackson Laboratory, Bar Harbor, Me.) were housed under controlled conditions (12-hr light/dark cycle; 25° C.). The animals were housed 5 per cage and had ad libitum access to standard laboratory chow (Purina Mills, Richmond Ind.) and water for one week after their arrival. On first day of the experiment and every day thereafter the weight of the mice and the amount of the food consumed were measured. The weight of mice and food remaining were measured daily between 3-5 p.m. before the ip injection of fatostatin A (30 mg/kg; 150 μL). The administration of Fatostatin A or 10% DMSO in PBS to control groups (n=5) continued daily for four weeks till the end of the study.
After 28 days of daily injection of fatostatin A mice were fasted overnight and blood was withdrawn and Whole blood glucose and 3-hydroxybutyrate were measured with a Glucometer Precision Xtra (Abbott). For determination of serum constituents. Glucose, triglyceride and cholesterol measurements were done by the Comparative Pathology Laboratory (Baylor College of Medicine). Serum non-esterified fatty acids (NEFA) were measured by using NEFA C kit (Wako Chemicals, Richmond, Va.).
Mice were sacrificed and weights of livers, and Epididymal fat pads were determined. Frozen sections of Liver slices from individual animals were stained with Oil Red O to visualize the fat droplets (TG) in liver slices as described earlier (Abu-Elheiga et al., 2001). The remaining liver tissues were frozen in liquid nitrogen and kept at −80° C. for further analysis.
Liver triglyceride and cholesterol contents were carried out as described in the reference (Chandler, et al., 2003) using Cholesterol E Kit (Wako) and Infinity Triglyceride Kit (Thermo Electron, Melbourne, Australia), adapted for colorimetric analysis in 96-well plate format.
A portion of the frozen liver was ground to powder in liquid nitrogen. The powdered tissues were suspended in 10 ml of PBS containing 0.1 mM PMSF, 5 mM benzamidine, and 5 mg/ml protease inhibitor cocktail (Roche), and homogenized using Polytron (3×30 Sec, at high speed) and sonicated briefly to degrade DNA. The extracts were clarified by centrifugation at 16,000×g for 20 min. Protein concentrations in the supernatant were determined, and subjected to western blot analysis using commercially available antibodies against the following enzymes: FAS (BD Biosciences), citrate lyase SCD1, FADS1, ACC and phospho-ACC antibodies. The proteins were visualized using Amersham ECL Plus™ Western Blotting Detection Reagents. The intensity of the specific bands of proteins of interest were scanned and normalized against beta-actin for quantifications. FAS and ACC activities from the liver extracts were determined as described earlier (Mao et al., 2006).
Total RNA was prepared from mouse tissues using TRIzol reagent (Invitrogen). Equal amounts of RNA from 5 mice were pooled and treated with DNase I (Turbo DNA-free, Ambion, Inc.). First stranded cDNA was synthesized from 2 μg of DNase I-treated total RNA with random hexamer primer using Superscript II RNase H-reverse transcriptase (Invitrogen). […]

[1] = western blot, normalized to actin

CCCc1cc(-c2nc(-c3ccc(C)cc3)cs2)ccn1 [Compound 1, 2-propyl-4-(4-p-tolylthiazol-2-yl)pyridine]
toxicity during the treatment (30 mg/kg ip daily, four weeks): no obvious toxicity | body weight gain at the end of first week (30 mg/kg/day ip, control 4.82): about 3.37 g/mouse | body weight at the end of first week (30 mg/kg/day ip, from 23.08±1.53): 26.45±1.2 g/mouse | decrease in serum HDL (28 days): about 22% | decrease in serum LDL (28 days): about 35% | increase of VLDL (28 days): about 50% | serum non esterified free fatty acids (NEFA) higher than controls (28 days): about 70% | serum triglycerides (TG) increase compared to controls (28 days): about 30% | ketone bodies (hydroxy butyrate) increase compared to controls (28 days, blood, listed as fatostatin A): increased about seven fold; also recorded: seven fold increase | serum glucose (28 days, fasted mice, control 429.4±87): 153.2 ± 30.5 mg/dL | serum glucose lower than controls (28 days, fasted mice, listed as fatostatin): ~70% | serum glucose lower than controls (28 days, fasted mice, listed as fatostatin A): about 70% | ketone bodies (hydroxy butyrate) (28 days, control 0.5±0.37): 3.62 ± 1.41 mg/dL | serum NEFA (28 days, control 0.7±0.2): 1.93±0.26 mEq/l | serum LDL (28 days, control 48±8): 31±3 | serum triglycerides (TG) (28 days, control 79±12): 115±11 | serum HDL (28 days, control 183±12): 144±11 | serum total cholesterol (28 days, control 219±18): 183 ± 16 mg/dL | body weight less than controls (after 28 days of treatment): about 12% | body weight (after 28 days of treatment, control 36.2±2.2): 32.1±1.4 g/mouse | food intake (average over 28 days, control 5.9±1.4): 5.4±1.5 g/mouse·day | VLDL (calculated based on TG levels, control 15.8±2.4): 23.1 ± 2.3 mg/dL | average daily food intake (control 5.9+1.4): 5.4+1.5 g/mouse/d | average weight of epididymal fat pads less than controls (four weeks): about 20% | decrease of ACC activity in liver extracts (four weeks): about 40% | reduction of FAS activity in liver extracts (four weeks): more than 70% | reduction of TG levels in livers (four weeks): about 65% | reduction of cholesterol levels in liver (four weeks): more than 20% | average weight of livers (four weeks, control 2.34±0.15): 1.59±0.2 | cholesterol levels in liver (four weeks, control 3.6±0.1): 2.8±0.5 | average weight of epididymal fat pads (four weeks, control 3.6±0.2): 2.7±0.1 | ACC activity in liver extracts (four weeks, control 5.55±0.57): 3.44±0.44 n mol/min·mg | FAS activity in liver extracts (four weeks, control 22.6±1.37): 8.64±1.91 n mol/min·mg | TG levels in livers (four weeks, control 38.7±6.0): 14.8±3.7 mg/gram liver | average weight of livers less than controls (four weeks, listed as fatostatin): ~32% | average weight of livers less than controls (four weeks, listed as fatostatin A): about 32% | reduction of PPAR γ mRNA level in liver (real time PCR): about 40% | reduction in the mRNA levels of ACC1, FAS and SCD1 in liver (real time PCR, normalized to actin): about 80% | protein level of FADS 1 or Δ5 Desaturase in liver (western blot): did not change | reduction of ACL protein level in liver extracts [1]: about 70% | reduction of SCD1 protein level in liver extracts [1]: about 50%
